For the assay, the target named is human APJ receptor (Homo sapiens (Human), UniProt P35414). Nature of the assay: biochemical. The class given is biochemical. Particulars: [35S]GTPγS binding, CHO membranes expressing human APJ receptor; read-out: Activity hAPJ SPA EC50 IP. Put shortly:
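GTPγS binding on membranes from CHO cells stably expressing FLAG-tagged human APJ, with optimized GDP, MgCl2 and NaCl; incubated 90 min at RT before imaging read-out.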
In general terms: Binding of GTPγS marks nucleotide exchange on a G protein.
Chain of human APJ receptor (P35414 whole entry): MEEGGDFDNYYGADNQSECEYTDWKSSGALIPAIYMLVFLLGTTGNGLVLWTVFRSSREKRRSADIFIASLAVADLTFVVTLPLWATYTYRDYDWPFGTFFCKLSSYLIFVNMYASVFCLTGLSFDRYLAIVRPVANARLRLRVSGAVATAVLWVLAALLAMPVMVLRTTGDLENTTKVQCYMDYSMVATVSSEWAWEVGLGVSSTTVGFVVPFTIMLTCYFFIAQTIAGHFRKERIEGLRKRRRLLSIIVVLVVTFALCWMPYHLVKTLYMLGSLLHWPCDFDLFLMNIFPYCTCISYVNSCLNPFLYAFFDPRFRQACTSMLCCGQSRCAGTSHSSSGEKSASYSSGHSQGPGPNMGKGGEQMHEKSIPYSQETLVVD
As for `CCn1ccc(-c2nnc(NS(=O)(=O)[C@@H](C)[C@H](C)c3ncc(F)cn3)n2-c2c(OC)cccc2OC)n1` [Example 191.0, (2S,3R)-N-(4-(2,6-dimethoxyphenyl)-5-(1-ethyl-1H-pyrazol-3-yl)-4H-1,2,4-triazol-3-yl)-3-(5-fluoro-2-pyrimidinyl)-2-butanesulfonamide], the EC50 – broadly, the concentration at which the effect is half-maximal – stood at 0.63 nM.
With `COc1cccc(OC)c1-n1c(NS(=O)(=O)[C@H](C)[C@@H](OC)c2ccc(C#N)cc2C#N)nnc1-c1ccn(C)n1` (single isomer, unassigned) [Example 266.0, (1S,2R)-1-(2,4-dicyanophenyl)-N-(4-(2,6-dimethoxyphenyl)-5-(1-methyl-1H-pyrazol-3-yl)-4H-1,2,4-triazol-3-yl)-1-methoxy-2-propanesulfonamide or (1R,2S)-1-(2,4-dicyanophenyl)-N-(4-(2,6-dimethoxyphenyl)-5-(1-methyl-H-pyrazol-3-yl)-4H-1,2,4-triazol-3-yl)-1-methoxy-2-propanesulfonamide] the figure was 0.4 nM; with `COc1cccc(OC)c1-n1c(NS(=O)(=O)[C@@H](C)[C@H](OC)c2ncc(Cl)cn2)nnc1-c1cc(C)on1` [Example 496.0, (1R,2S)-1-(5-chloropyrimidin-2-yl)-N-(4-(2,6-dimethoxyphenyl)-5-(5-methylisoxazol-3-yl)-4H-1,2,4-triazol-3-yl)-1-methoxypropane-2-sulfonamide], 0.62 nM.
With `COc1ccc(N2CCC2=O)cc1-n1c(NS(=O)(=O)CCc2ccc(F)cc2Br)nnc1-c1cccs1` [Example 131.0, 2-(2-Bromo-4-fluorophenyl)-N-(4-(2-methoxy-5-(2-oxoazetidin-1-yl)phenyl)-5-(thiophen-2-yl)-4H-1,2,4-triazol-3-yl)ethanesulfonamide] the figure was 4.1 nM; with `COc1cccc(OC)c1-n1c(NS(=O)(=O)[C@@H](C)[C@H](OC)c2ncc(Cl)cn2)nnc1-c1n[nH]c2ccccc12` [Example 421.0, (1R,2S)-1-(5-chloropyrimidin-2-yl)-N-(4-(2,6-dimethoxyphenyl)-5-(1H-indazol-3-yl)-4H-1,2,4-triazol-3-yl)-1-methoxypropane-2-sulfonamide], 4.5 nM.
The value for `O=S(=O)(CCc1ccc(Cl)cc1)Nc1nnc(-c2cccs2)n1-c1ccccc1C(F)(F)F` [Example 357.0, 2-(4-Chlorophenyl)-N-(5-(thiophen-2-yl)-4-(2-(trifluoromethyl)phenyl)-4H-1,2,4-triazol-3-yl)ethanesulfonamide] was over 12500 nM.
Turning to `COc1cccc(OC)c1-n1c(NS(=O)(=O)[C@H](C)Cc2ncc(F)cn2)nnc1-c1cnccn1` (single isomer, unassigned) [Example 29.0, (R)-N-(4-(2,6-dimethoxyphenyl)-5-(pyrazin-2-yl)-4H-1,2,4-triazol-3-yl)-1-(5-fluoropyrimidin-2-yl)propane-2-sulfonamide or (S)-N-(4-(2,6-dimethoxyphenyl)-5-(pyrazin-2-yl)-4H-1,2,4-triazol-3-yl)-1-(5-fluoropyrimidin-2-yl)propane-2-sulfonamide], the EC50 is 47 nM.
Take `COc1cccc(OC)c1-n1c(NS(=O)(=O)[C@@H](C)[C@H](OC)c2ncc(Cl)cn2)nnc1-c1c(C)nc2ccccn12` [Example 428.0, (1R,25)-1-(5-chloropyrimidin-2-yl)-N-(4-(2,6-dimethoxyphenyl)-5-(2-methylimidazo[1,2-a]pyridin-3-yl)-4H-1,2,4-triazol-3-yl)-1-methoxypropane-2-sulfonamide]: the EC50 worked out at 120 nM.
The value for `COc1cccc(OC)c1-n1c(NS(=O)(=O)[C@@H](C)[C@H](OC)c2ncc(C)cn2)nnc1-c1cnc2[nH]ccc2n1` [Example 206.0] was 96 nM.
With `COCC1(n2c(NS(=O)(=O)[C@@H](C)[C@H](OC)c3ncc(Cl)cn3)nnc2-c2n[nH]c3ccc(C)cc23)CC1` [Example 493.0, (1R,2S)-1-(5-chloropyrimidin-2-yl)-1-methoxy-N-(4-(1-(methoxymethyl)cyclopropyl)-5-(5-methyl-1H-indazol-3-yl)-4H-1,2,4-triazol-3-yl)propane-2-sulfonamide] the figure was 43 nM.
With `COCC1(n2c(NS(=O)(=O)[C@@H](C)[C@@H](OC(C)C)c3ncc(C)cn3)nnc2-c2ccn(C)n2)CC1` [Example 462.0, (1S,2S)-N-(4-(1-(methoxymethyl)cyclopropyl)-5-(1-methyl-1H-pyrazol-3-yl)-4H-1,2,4-triazol-3-yl)-1-(5-methyl-2-pyrimidinyl)-1-(2-propanyloxy)-2-propanesulfonamide] the figure was 4.1 nM; with `COc1ccc(S(C)(=O)=O)cc1-n1c(NS(=O)(=O)CCc2ccc(Cl)cc2)nnc1-c1cccs1` [Example 312.0, 2-(4-Chlorophenyl)-N-(4-(2-methoxy-5-(methylsulfonyl)phenyl)-5-(thiophen-2-yl)-4H-1,2,4-triazol-3-yl)ethanesulfonamide], 76 nM.
`COc1cccc(OC)c1-n1c(NS(=O)(=O)[C@@H](C)[C@H](C)c2ncc(Cl)cn2)nnc1-c1n[nH]c2ccccc12` [Example 429.0]: the half-maximal effective concentration (EC50) worked out at 7.6 nM.
The value for “(R)-N-(4-(2,6-dimethoxyphenyl)-5-(1H-pyrazol-3-yl)-4H-1,2,4-triazol-3-yl)-1-(5-fluoropyrimidin-2-yl)propane-2-sulfonamide and (S)-N-(4-(2,6-dimethoxyphenyl)-5-(1H-pyrazol-3-yl)-4H-1,2,4-triazol-3-yl)-1-(5-fluoropyrimidin-2-yl)propane-2-sulfonamide [Example 71.0]” was 41 nM; that for `COc1ccc(NCCO)cc1-n1c(NS(=O)(=O)CCc2ccc(Cl)cc2)nnc1-c1cccs1` [Example 251.0, 2-(4-chlorophenyl)-N-(4-(5-((2-hydroxyethyl)amino)-2-methoxyphenyl)-5-(2-thiophenyl)-4H-1,2,4-triazol-3-yl)ethanesulfonamide] was 460 nM.
For `COc1cccc(OC)c1-n1c(NS(=O)(=O)[C@@H](C)[C@H](C)c2ncc(Cl)cn2)nnc1-c1noc2c1CCCC2` [Example 441.0, (2S,3R)-3-(5-chloropyrimidin-2-yl)-N-(4-(2,6-dimethoxyphenyl)-5-(4,5,6,7-tetrahydrobenzo[d]isoxazol-3-yl)-4H-1,2,4-triazol-3-yl)butane-2-sulfonamide], the EC50 turned out to be 0.33 nM.
The value for `COc1cccc(OC)c1-n1c(NS(=O)(=O)[C@@H](C)[C@H](OC)c2ncc(C)cn2)nnc1-c1cscn1` [Example 342.0, (1R,2S)-N-(4-(2,6-dimethoxyphenyl)-5-(1,3-thiazol-4-yl)-4H-1,2,4-triazol-3-yl)-1-methoxy-1-(5-methyl-2-pyrimidinyl)-2-propanesulfonamide] was 0.5 nM; that for `COc1cccc(OC)c1-n1c(NS(=O)(=O)[C@H](C)Cc2ncc(F)cn2)nnc1-c1conc1C` (single isomer, unassigned) [Example 65.0, (R)-N-(4-(2,6-dimethoxyphenyl)-5-(3-methylisoxazol-4-yl)-4H-1,2,4-triazol-3-yl)-1-(5-fluoropyrimidin-2-yl)propane-2-sulfonamide or (S)-N-(4-(2,6-dimethoxyphenyl)-5-(3-methylisoxazol-4-yl)-4H-1,2,4-triazol-3-yl)-1-(5-fluoropyrimidin-2-yl)propane-2-sulfonamide] was 76 nM; that for `COc1cccc(OC)c1-n1c(NS(=O)(=O)[C@H]2CCCNC2)nnc1-c1ccn(C)n1` (mixture of isomers) [Example 263.0, (3R)-N-(4-(2,6-dimethoxyphenyl)-5-(1-methyl-1H-pyrazol-3-yl)-4H-1,2,4-triazol-3-yl)-3-piperidinesulfonamide and (3S)-N-(4-(2,6-dimethoxyphenyl)-5-(1-methyl-1H-pyrazol-3-yl)-4H-1,2,4-triazol-3-yl)-3-piperidinesulfonamide] was 180 nM.
The value for `COc1cccc(OC)c1-n1c(NS(=O)(=O)[C@H](C)Cc2ncc(F)cn2)nnc1-c1ccncn1` (single isomer, unassigned) [Example 39.0, (R)-N-(4-(2,6-dimethoxyphenyl)-5-(pyrimidin-4-yl)-4H-1,2,4-triazol-3-yl)-1-(5-fluoropyrimidin-2-yl)propane-2-sulfonamide or (R)-N-(4-(2,6-dimethoxyphenyl)-5-(pyrimidin-4-yl)-4H-1,2,4-triazol-3-yl)-1-(5-fluoropyrimidin-2-yl)propane-2-sulfonamide] was 230 nM; that for `COc1cccc(OC)c1-n1c(NS(=O)(=O)[C@@H](C)Cc2ncc(F)cn2)nnc1-c1cccnn1` (single isomer, unassigned) [Example 32.0, (2S)-N-(4-(2,6-dimethoxyphenyl)-5-(3-pyridazinyl)-4H-1,2,4-triazol-3-yl)-1-(5-fluoro-2-pyrimidinyl)-2-propanesulfonamide or (2R)-N-(4-(2,6-dimethoxyphenyl)-5-(3-pyridazinyl)-4H-1,2,4-triazol-3-yl)-1-(5-fluoro-2-pyrimidinyl)-2-propanesulfonamide] was 17 nM.
With `COc1cccc(OC)c1-n1c(NS(=O)(=O)[C@@H](C)[C@H](OC)c2ncc(C)cn2)nnc1-c1c(C)nc2ccccn12` [Example 410.0, (1R,25)-N-(4-(2,6-dimethoxyphenyl)-5-(2-methylimidazo[1,2-a]pyridin-3-yl)-4H-1,2,4-triazol-3-yl)-1-methoxy-1-(5-methylpyrimidin-2-yl)propane-2-sulfonamide] the figure was 940 nM; with “(2S)-N-(4-(2,6-dimethoxyphenyl)-5-(2-pyrazinyl)-4H-1,2,4-triazol-3-yl)-1-(5-fluoro-2-pyrimidinyl)-2-propanesulfonamide and (2R)-N-(4-(2,6-dimethoxyphenyl)-5-(2-pyrazinyl)-4H-1,2,4-triazol-3-yl)-1-(5-fluoro-2-pyrimidinyl)-2-propanesulfonamide [Example 182.0]”, 84 nM; with `COc1cccc(OC)c1-n1c(NS(=O)(=O)[C@@H](C)[C@H](OC)c2ncc(Cl)cn2)nnc1-c1c[nH]cn1` [Example 523.0, (1R,2S)-1-(5-chloropyrimidin-2-yl)-N-(4-(2,6-dimethoxyphenyl)-5-(1H-imidazol-4-yl)-4H-1,2,4-triazol-3-yl)-1-methoxypropane-2-sulfonamide], 3.2 nM.

These data come from US11046680B1, “Heteroaryl-substituted triazoles as APJ receptor agonists” (priority 2016, dated 2021).
